“And” between values parts separate entries of the source, which are not always exact repeats. Equal values may be shown once.
Legend:
Assay type in all cases: cell-based, Human
U87 cells [1] = test: T1-weighted MRI (3D FLASH) of U87 cells seeded at three densities and labeled with RGD-Gd; details: 400 µM
Description: Seeded at three densities, cells were incubated with E-[c(RGDfK)2]-DOTA-Gd at 400 µM for 4 h. The same protocol to prepare cells trapped in agarose gel was used. 3D images of the RGD internalization were acquired with a T1-w sequence (FLASH sequence, TE/TR: 1,5/12 ms, flip angle: 20°, FOV: 30*25*20 mm, matrix:128*128*64, 6 averages, total acquisition time: 9 min 49 s).

U87 cells [2] = test: T1-weighted MRI (2D FLASH) of U87 cells after uptake of contrast agent; details: U87 cells at 7*10^4 cell/cm^2, 400 µM, 4.7 T, unlabeled cells SNR 60
Description: E-[c(RGDfK)2]-DOTA-Gd uptake by U87 cells was performed on cells platted at 7.10^4 cells/cm^2. After 24 h, the cells were then incubated for 4 h with 400 µM of E-[c(RGDfK)2]-DOTA-Gd or for 1 h with MnCl2 at 400 µM as positive contrast for the T1-weighted (T1-w) sequence. Then the medium was discarded and the cells were washed with RPMI. The cells were re-suspended at 2.10_6 cells in 100 µL of phosphate buffer saline (PBS) for each condition and mixed with 100 µL of agarose 2% (Sigma-Aldrich).
MR images of cells trapped in agarose gel were acquired on a 4.7 T Biospec system (Bruker, Ettlingen, Germany). The system was equipped with a 6-cm diameter BG6 gradient system capable of 950 mT/m maximum strength. Imaging was performed with a birdcage resonator (35-mm diameter and 80-mm length) tuned at 200.3 MHz. 2D images were acquired with a T1-w sequence (FLASH sequence, TE/TR: 1,6/14 ms, flip angle: 60°, FOV: 25*25 mm, matrix:128*96, […], total acquisition time: 5 min 44 s).

U87 cells [3] = test: Flow cytometry uptake under different energy substrates and oxidative metabolism inhibitors
Description: Human GBM cell line U87-MG from the American Type Culture Collection (ATCC, LGC standards, Middlesex, UK) was cultured in Dulbecco's modified eagles medium (DMEM, Gibco Corp) supplemented with 10% fetal calf serum (FCS, Gibco Corp), in a humidified atmosphere with 5% CO2 at 37°C. The characterization of the metabolism contribution was performed with DMEM without glucose and pyruvate (DMEM, Gibco Corp). Glucose or pyruvate were added when necessary at the concentration of 1 g/L and 0.11 g/L , respectively.
(§1) Uptakes of E-[c(RGDfK)2]-Alexa488 and iRGD-alexa488 by U87 cells were compared for different cellular densities using flow cytometry. Twenty four multiwell plates (Becton-Dickinson, 2 cm^2/well), were pretreated with collagen (Sigma-Aldrich) (10 µg/cm^2). Then the cells were seeded during 24 h either at densities ranging from 8.10^3 to 10^5 cells/cm2 or at three typical densities being in the lowest, the median and the highest values of the previously mentioned density range. The cells were incubated 1 h with the fluorescent RGD ligands (E-[c(RGDfK)2]-Alexa488, 2 µM; iRGD-alexa488, 15 µM). Then the medium was discarded and the cells were washed with Roswell Park Memorial Institute Medium (RPMI, Gibco Corp). Thereafter the cells were re-suspended in RPMI at 100 cells/µl and analyzed by flow cytometry (Guava easyCyte flow cytometer/counter, Millipore, λexc: 488 nm, λem: 525 nm).
The oxidative metabolism was studied with oligomycine (20 µM) and rotenone (10 µM).
(§2) All of these inhibitors and drugs were applied on the cells for 1 h simultaneously with the fluorescent RGD ligands. When specified, incubation of drugs begun 20 min before the incubation with the RGD ligands. All the reagents were from Sigma-Aldrich.

U87 cells [4] = test: Flow cytometry uptake of fluorescent RGD ligands versus cell density; details: 8*10^3 to 10^5 cells/cm^2, 1 h incubation, Alexa Fluor-488 conjugates (E-[c(RGDfK)2] 2 µM; iRGD 15 µM)
Description: as §1

U87 cells [5] = test: Flow cytometry uptake with cytoskeleton drugs (paclitaxel, cytoD, colchicine, nocodazole); details: 1 h
Description: as §1
The microtubule targeting was performed using paclitaxel (10 µM), colchicin (7.5 µM) and nocodazole (30 µM).
as §2

U87 cells [6] = test: Flow cytometry uptake with endocytosis pathway inhibitors (nystatin, amiloride, chloroquine); details: 1 h
Description: as §1
The clathrin-mediated endocytosis and the caveola-dependent endocytosis were characterized by incubations with chloroquine (100 µM) and nystatin (30 µM), respectively. Contribution of macropinocytosis was studied following amiloride treatment (1 mM).
as §2

U87 cells [7] = test: Fluorescence microscopy of sub-cellular location of fluorescent RGD ligands
Description: Protocols for microscopy were identical to those for flow cytometry. Cells were seeded on glass coverslips after collagen treatment as described above. After the different sets of incubations the cells were washed with RPMI and fixed with paraformaldehyde (4%, 20 min). Nuclei were then labeled with DAPI (0.01 mg/ml). After three washes, the coverslips were mounted on glass slides and observed using a Leica DM5500 B (magnification 63×, λexc: 480 nm, λem: 530 nm and λexc:360 nm λem: 470 nm for alexa fluor-488 and DAPI respectively).

## E-[c(RGDfK)2]-DOTA-Gd (bicyclic or more) [RGD-gadolinium chelate made by mixing E-[c(RGDfK)2]-DOTA with GdCl2; MRI contrast agent]
U87 cells [1]
  SNR values for low, medium and high density compared with each other: not significantly different
U87 cells [1]; p<0.05
  SNR of the different cell densities compared with SNR of control: significantly higher
U87 cells [1]; highest density, 4 h, 3D FLASH 4.7 T
  SNR (T1-w MRI), highest cell density: 16.5
U87 cells [2]; 4 h incubation
  SNR of labeled U87 cells (T1-w MRI): 70

## [Cl][Mn][Cl] [MnCl2, reference compound]
U87 cells [2]; positive contrast control, 1 h incubation
  SNR of labeled U87 cells (T1-w MRI): 100

## CRGDK/RGPD/EC [iRGD-alexa488]
U87 cells [3]; DMEM without glucose, no oligomycin, remained cell density dependent
  Internalization without glucose and with or without pyruvate (conditions 2 and 3): not altered
U87 cells [3]; oligomycin 20 µM, glucose 1 g/L, pyruvate 0.11 g/L
  Internalization with oligomycin in presence of glucose and pyruvate (condition 4): decreased more for the lowest cell densities than for the highest ones
U87 cells [3]; oligomycin 20 µM, regardless of the cell density
  Internalization without glucose in the presence of pyruvate and oligomycin (condition 5): strong inhibition
U87 cells [3]; rotenone 10 µM, data not shown
  Internalization with rotenone compared with oligomycin: comparable
U87 cells [4]
  Increase of cell labeling (MFI) at the highest densities compared to the lowest: 30%
U87 cells [5]; colchicine 7.5 µM, high density (80000 cell/cm^2 for E-[c(RGDfK)2], 70000 for iRGD), mean ± SEM, n≥3
  Uptake results after colchicine treatment (strong decrease), high density: 54.8%±0.8%
U87 cells [5]; colchicine 7.5 µM, low density (10000 cell/cm^2), mean ± SEM, n≥3
  Uptake results after colchicine treatment (strong decrease), low density: 55.0%±0.3%
U87 cells [5]; colchicine 7.5 µM, medium density (40000 cell/cm^2 for E-[c(RGDfK)2], 35000 for iRGD), mean ± SEM, n≥3
  Uptake results after colchicine treatment (strong decrease), medium density: 53.1%±0.1%
U87 cells [5]; cytoD 20 µM, high density (80000 cell/cm^2 for E-[c(RGDfK)2], 70000 for iRGD), mean ± SEM, n≥3
  cytoD effect on internalization (decrease), high density: 29.0%±2.1%
U87 cells [5]; cytoD 20 µM, low density (10000 cell/cm^2), mean ± SEM, n≥3
  cytoD effect on internalization (decrease), low density: 29.7%±1.3%
U87 cells [5]; cytoD 20 µM, medium density (35000 cell/cm^2 for iRGD), mean ± SEM, n≥3
  cytoD effect on internalization (decrease), medium density: 23.5%±1.3%
U87 cells [5]; paclitaxel 10 µM
  Effect of paclitaxel (stabilization of polymerized microtubules) on internalization: did not alter
U87 cells [6]; amiloride 1 mM
  Effect of macropinocytosis inhibition (amiloride) on internalization: had no effect
U87 cells [6]; chloroquine 100 µM, high density (95000 cell/cm^2 for E-[c(RGDfK)2], 75000 for iRGD), mean ± SEM, n≥3
  Decrease of uptake after chloroquine treatment, high density: 53.9%±2.5%
U87 cells [6]; chloroquine 100 µM, low density (15000 cell/cm^2 for E-[c(RGDfK)2], 7000 for iRGD), mean ± SEM, n≥3
  Decrease of uptake after chloroquine treatment, low density: 42.4%±1.1% and 42%
U87 cells [6]; chloroquine 100 µM, medium density (50000 cell/cm^2 for E-[c(RGDfK)2], 35000 for iRGD), mean ± SEM, n≥3
  Decrease of uptake after chloroquine treatment, medium density: 48.2±0.2%
U87 cells [6]; nystatin 30 µM, all studied cell densities
  Effect of caveolin-dependent endocytosis inhibition (nystatin) on internalization: did not alter
U87 cells [7]; 1 h at 37°C, all studied cell densities, no inhibitor (iRGD-alexa488 15 µM)
  Sub-cellular location of the fluorescent signal: most of the signal appeared intracellular
U87 cells [7]; 1 h at 37°C, no inhibitor (iRGD-alexa488 15 µM)
  Membrane labeling: undetectable
U87 cells [7]; nystatin (30 µM), data not shown
  Fluorescence location in the presence or not of nystatin: inside cytoplasmic vesicles
U87 cells [7]; with chloroquine (100 µM)
  Sub-cellular location of fluorescence during inhibition of clathrin-mediated endocytosis: typical cytoplasmic membrane labeling

Reference: publication PMC3873929, “Cellular Density Effect on RGD Ligand Internalization in Glioblastoma for MRI Application” (PLoS ONE, 2013)
